Measured values reported in PubChem BioAssay AID602191 (Broad Institute, 2012).
Calls of active or inactive are those of the source.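 How the source made its calls: active means fitted curve reaches 40% activation at a concentration no higher than the top valid tested dose; inconclusive means flat fit between 30% and 70% activation, or poor fit; inactive means uptake decrease, flat fit within 30% of zero, the rest.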

These compounds were tested against Scavenger receptor class B member 1 (Mus musculus) (UniProt Q61009) (assay: activators of SR-BI-mediated HDL uptake, dose response, cell-based, ldlA[mSR-BI] CHO, DiI fluorescence, cherry-pick (AID 602191;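 further: cell fluorescence from internalized DiI-labeled HDL after washing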;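 on AC40: potency of activators raising HDL uptake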;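 on activation (HDL uptake increase): 0% = median of DMSO wells and 100% = twice the DMSO signal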)). Settings: ldlA[mSR-BI] CHO cells, 3 h.
Sequence of Scavenger receptor class B member 1 (Mus musculus) (Q61009 whole entry, looked up): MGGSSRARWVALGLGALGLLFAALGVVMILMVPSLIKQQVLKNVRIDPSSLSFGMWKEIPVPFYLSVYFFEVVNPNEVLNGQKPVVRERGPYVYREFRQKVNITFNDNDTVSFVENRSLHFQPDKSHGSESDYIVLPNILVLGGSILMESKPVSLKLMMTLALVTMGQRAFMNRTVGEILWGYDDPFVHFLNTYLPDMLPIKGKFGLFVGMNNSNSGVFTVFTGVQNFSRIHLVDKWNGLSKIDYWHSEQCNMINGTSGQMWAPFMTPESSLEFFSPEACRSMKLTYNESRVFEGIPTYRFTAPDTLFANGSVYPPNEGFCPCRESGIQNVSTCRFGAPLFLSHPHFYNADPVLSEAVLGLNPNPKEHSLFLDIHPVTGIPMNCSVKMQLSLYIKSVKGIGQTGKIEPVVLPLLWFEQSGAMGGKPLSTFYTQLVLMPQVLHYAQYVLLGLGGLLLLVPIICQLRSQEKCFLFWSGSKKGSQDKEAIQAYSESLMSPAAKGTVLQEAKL

| AC40 | Structure (SMILES) |
| --- | --- |
| 35 µM | Cc1ccc(S(=O)(=O)Nc2ccc3c(c2)C(=O)N([C@H](C)CO)C[C@H](C)[C@@H](CN(C)Cc2ccc(-c4ccccc4)cc2)O3)cc1 |
| > 35 µM (inactive) | O=C(CC1NC(=O)NC1=O)Nc1ccc(Cl)cc1 (configuration not stated) |
| > 35 µM (inactive) | NC(=O)c1ncn([C@@H]2O[C@H](CN=C3NS(=O)(=O)c4ccccc43)[C@@H](O)[C@H]2O)n1 |

Same assay, conditions: ldlA[mSR-BI] CHO cells, 3 h, at 35 µM (top of the series)

| activation (HDL uptake increase) | Structure (SMILES) |
| --- | --- |
| 25.1% (inactive) | O=C(CC1C[C@H](C(=O)N2CCOCC2)[C@@]2(CCC3CCCC3)c3[nH]c4ccccc4c3CCN2C1=O)NCc1cccc(C(F)(F)F)c1 (some centres not stated) |
| -4.58% (inactive) | CC1CC(C)CN(C(=O)CN2CCN(Cc3ccc(Cl)cc3)C2=O)C1 (configuration not stated) |
| -6.57% (inactive) | Cc1ccc(S(=O)(=O)CCC(=O)OCC(=O)Nc2cc(S(=O)(=O)N3CCOCC3)ccc2Cl)cc1 |
| 2.24% (inactive) | Cc1cccc(C)c1OCc1cc(C(=O)N2CCC(c3ccccc3)CC2)no1 |
| -1.19% (inactive) | Cc1ccc(C2(CCNCc3ccc(N(C)C)cc3)CCOC(C(C)C)C2)cc1 (configuration not stated) |
| -6.25% (inactive) | O=C(CCCCCN1C(=O)c2ccccc2C1=O)Nc1ccc(C(=O)O)cc1 |
| 11.8% (inactive) | CCOc1ccc(N(CC(=O)NC2CCCCCC2)S(=O)(=O)c2ccccc2)cc1 |
| -1.69% (inactive) | CC(=O)Nc1ccc(OC(=O)c2ccco2)cc1 |
| -0.366% (inactive) | O=C(CCNS(=O)(=O)c1cccs1)N1CCc2ccccc2C1 |
| -8.43% (inactive) | Cc1cc(C)nc(SCC(=O)OC(C)C(=O)Nc2ccccc2)n1 (configuration not stated) |
| -3.23% (inactive) | O=C(C[C@H]1C[C@H](C(=O)N2CCOCC2)[C@@]2(CCC3CCCC3)c3[nH]c4ccc(Cl)cc4c3CCN2C1=O)NCc1ccco1 |
| -6.65% (inactive) | COc1ccc(N(CC(=O)NCc2ccccc2)S(=O)(=O)c2c(C)nn(C)c2C)cc1 |
| -6.45% (inactive) | CCC(=O)Nc1ccc(C(=O)NNC(=O)c2cccs2)cc1 |
| -9.62% (inactive) | CCc1nn(CC(=O)N2CCN(CC)CC2)c(=O)c2cccn12 |
| -1.9% (inactive) | COc1ccc(/C(O)=C2/C(=O)C(=O)N(CCN3CCOCC3)C2c2ccccn2)cc1 (configuration not stated) |
| 0.848% (inactive) | O=C(C1=C[C@@H](c2ccc(Br)cc2)C[C@@H](OCc2ccc(CO)cc2)O1)N1CCN(Cc2ccccc2)CC1 |
| -9.53% (inactive) | O=C(O)CCn1cc(/C=C/C(=O)c2ccc(Cl)cc2)c(-c2ccc(Br)cc2)n1 |

Further lines, the compound ahead of its results:

| Structure (SMILES) | activation (HDL uptake increase) |
| --- | --- |
| CN(C)CCn1c2c(c(SCC(=O)NCc3ccccc3)nc1=O)CCCC2 | 5.5% (inactive) |
| O=C(O)C1CCN(Cc2cnn(-c3ccccc3)c2-n2cccc2)CC1 | 6.93% (inactive) |
| COC(=O)[C@@H]1C[C@@]2(O)[C@H](O)[C@H](O)[C@H](O)C[C@H]2N1Cc1cccc2ccccc12 | 8.8% (inactive) |
| COC(=O)C1(C)NC(c2ccccc2OC)C2C(=O)N(c3ccccc3)C(=O)C21 (configuration not stated) | 7.27% (inactive) |
| Cc1ccc(S(=O)(=O)NC(=O)COc2ccccc2C)c(C)c1 | 11.3% (inactive) |
| COc1ccc(C(C(=O)NC2CCCCC2)N(C(=O)CCl)c2ccccc2Cl)cc1 (configuration not stated) | -7.36% (inactive) |
| O=C1NC[C@H](Cc2ccccc2)N(C[C@H]2CCCN2C[C@H](Cc2ccccc2)N2C[C@H](Cc3ccccc3)N(CC3CCCCC3)C(=O)C2=O)C1=O | 11.2% (inactive) |
| O=C(C1CCC(=O)N(C2CCCC2)C1)N1CCN(Cc2cccc(Cl)c2)CC1 (configuration not stated) | -5.02% (inactive) |
| O=C(COc1ccc(C(=O)c2ccccc2)cc1)NC1CCCCC1 | -7.46% (inactive) |
| O=C(CC(c1ccccc1)c1ccco1)Nc1nccs1 (configuration not stated) | 4.67% (inactive) |
| Cc1cc(Cl)ccc1OCC(=O)OCC(=O)N1CCC(C(N)=O)CC1 | -16.7% (inactive) |
| O=C(CSc1nnnn1-c1ccccc1)N1CCNC1=O | -10.4% (inactive) |
